The record followed here is patent US20140230091A1, “MODIFIED PLANTS WITH INCREASED OIL CONTENT” (BROOKHAVEN SCIENCE ASSOCIATES, LLC, priority 2011, published 2014).

The subject of assay [1] is B. napus cells. The assay can be described thus: Quantification of fatty acid uptake from 13C-oleoyl-Tween by B. napus cells. Format: cell-based, Brassica napus. The note with it: 10 mM 13C-oleoyl-Tween. The procedure: Lipids were extracted from up to 100 mg fresh weight of frozen cells by homogenizing twice in 500 μL of methanol:chloroform:formic acid (20:10:1 v/v) using glass beads. The combined organic solvent was extracted with 500 μL of 1 M KCl, 0.2 M H3PO4 and the organic phase was recovered, dried under N2, and resuspended in hexane. Lipid classes were separated by TLC using silica gel G TLC Uniplates (Analtech, Newark, Del., USA) with hexane:diethylether:acetic acid (80:20:1, v/v) for neutral lipids or with acetone:toluene:water (91:30:7 v/v) with 0.15 M ammonium sulfate impregnated plates for polar lipids. Loading was equivalent to 10 or 20 mg fresh weight. Lipids were visualized with iodine vapor.
Fatty acid quantification was done by analysis of fatty acid methyl esters (FAMEs). […] FAMEs resuspended in hexane were analyzed with an HP6890 gas chromatograph-flame ionization detector (Agilent Technologies) or an HP5890 gas chromatograph-mass spectrometer (Hewlett-Packard) fitted with 60 m×250 μm SP-2340 capillary columns (Supelco). […]
1-^13C-oleic acid was obtained from Cambridge Isotope Laboratories (Andover, Mass., USA). […] Lipid extraction and GC/MS was done as described above. ^13C-fatty acids were detected and quantified and corrected for natural isotope abundance as previously described (Schwender et al. 2003, J Biol Chem, 278, 29442-29453). […]

Assay [2] concerns B. napus cells. The assay can be described thus: Quantification of free fatty acid, acyl-ACP and acyl-CoA pools in cells. Format: cell-based, Brassica napus. The note with it: cells fed 13C-oleoyl-Tween, at 3 hours. The procedure: Free fatty acids were extracted from tissue by quenching ˜300 mg of frozen cells in 2 mL boiling isopropanol for 5 min. Once cooled, 2 mL of 0.9% NaCl was added and lipids were extracted twice with 4 mL of hexane. Neutral lipids were separated by TLC and free fatty acids were scraped, made into FAMEs, and analyzed by GC-FID or GC-MS as described above. Acyl-CoAs were extracted from ˜15 mg FW of cells and quantified as previously described (Larson and Graham 2001, Plant J, 25, 115-125). Acyl-ACPs were extracted and quantified as previously described (Kopka, Ohlrogge and Jaworski 1995, Anal Biochem, 224, 51-60) with the following modifications: 1) Internal standards used were 11:0-CoA (Sigma) and 17:0—ACP made from Spinach ACP as previously described (Broadwater and Fox 1999, Protein Expr Purif, 15, 314-326). 2) Fully dissolving TCA precipitated proteins required three extractions with MOPS buffer rather than just one.
1986 Plant Physiol, 82, 771-779). Free fatty acids can be activated by esterification to CoA or ACP before being deposited in cellular lipids. Steady state pools acyl-ACP and acyl-CoA as well as free fatty acids (FFA) were measured in cells fed Tween-80. After three hours of feeding, 18:1 FFA appeared where there was none detected in untreated cells (FIG. 9a). […] In a separate experiment designed to distinguish the incorporation of fatty acids from Tween from secondary effects of feedback inhibition, FFA and acylACPs were analyzed in cells fed ^13C-oleoyl-Tween. […] First, the in vivo concentrations of these intermediates were calculated based on the range of values in FIG. 9 and the water content of the cells. […] However, considering that acyl-ACPs are restricted to the plastid, the volume of which in developing embryos was determined to be 10% of the cell (Mansfield and Briarty 1992, Can J Bot, 70, 151-164), the estimate increased to 5-10 μM. […] Thioesterase activity was measured using the same conditions as the ACCase assay. […]

Assay [3] has as its system ACCase. The assay is described as follows: ACCase enzyme assay on crude cell extracts. The assay is classed as biochemical, Brassica napus. The procedure: All chemicals were obtained from Sigma and radioisotopes from American Radiolabeled Chemicals. ACCase activity was measured as the acetyl-CoA dependent incorporation of ^14C—NaHC03 into acid and stable products. Crude cell extracts were prepared by grinding fresh cells in 3 volumes (w/v) of 50 mM Tris-Cl, pH 7.5, 100 mM KCl, 5 mM MgCl2, 1 mM DTT, 0.1% TritonX-100, 10% glycerol, and plant protease inhibitor cocktail (Sigma). Homogenate was gently mixed on ice for 10 min and then centrifuged for 5 min at 3000 g. Desalting of extracts was done with PD-10 columns (GE Life Sciences). […] Reactions were initiated by the addition of 5 μlL cell extract and were stopped by the addition of 15 μL 12 N HCL. The contents were dried completely at 55° C. and the solids were resuspended in 30 μL water and counted by liquid scintillation spectroscopy. Minus acetyl-CoA controls were always included. Assays went for 30 min, except when measuring the effects of metabolites (10 min). Metabolites were added to the reaction immediately after cell extract to preserve labile thioester bonds. FFA stock solutions were made in ethanol and acyl-CoAs were suspended in water.

In assay [4] the test system is fatty acid synthesis in B. napus cells. The assay can be described thus: 14C-acetate / 14C-malonate labeling of lipids (feedback inhibition of fatty acid synthesis). Format: cell-based, Brassica napus. The note with it: for Relative 14C-acetate incorporation (% control): relative to a control sample without any Tweens, mean of three repeats ± SD. The procedure:
All radioisotopes were obtained from American Radiolabeled Chemicals (St. Louis, Mo. USA). Labeling was conducted on cells 5 days after subculturing with a culture density of ˜20 mg FW mL^−1 and that had medium refreshed 16 h prior. For labeling, three 1 mL aliquots of cells were carefully removed from each flask and were labeled with either 0.2 μCi of 1,2-^14C-acetate (50-60 mCi mmol^−1) or 2-^14C-malonate (40-60 mCi mmol^−1) for 15 minutes at 25° C. with occasional shaking. Haloxyfop (Sigma) was dissolved in DMSO and added 30 min prior to labeling. Lipids were extracted and separated by TLC as described above. Radioactivity was detected by phosphorimaging and was quantified using ImageQuant software (GE Healthcare, Piscataway, N.J., USA). Incorporation of label into individual fatty acids was determined by making FAMEs as described above, separating the methyl esters by TLC as described in (Koo, Fulda, Browse and Ohlrogge 2005, Plant J, 44, 620-632) and measuring radioactivity by phosphorimaging.
Feedback inhibition of fatty acid synthesis was measured by the addition of a ^14C-acetate tracer. […] Sterol synthesis is dependent on acetyl-CoA and ATP, both of which are required for fatty acid synthesis. Therefore, if fatty acid synthesis is inhibited due to substrate limitation; so should be sterol biosynthesis. ^14C-acetate incorporation into sterols was unaffected by Tween-80 feeding, while incorporation into free fatty acids mirrored that of total lipids (FIG. 5), showing that the effect is restricted to fatty acid synthesis. […] Three hour time points were used for the remainder of this study to separate the period of maximum feedback inhibition from any lipid homeostatic mechanisms arising from the gross fatty acid compositional changes caused by long term Tween-80 feeding.
Plants contain plastidic and cytosolic ACCase and F AS enzyme systems, both of which are capable of incorporating ^14C-acetate into fatty acids. Comparing the distribution of label in individual fatty acid species can therefore provide information on the relative contribution of these pathways. […] The degree to which ^14C-acetate incorporation is inhibited by haloxyfop is proportional to cytosolic elongation activity, whereas haloxyfop-resistant incorporation is from the de nova pathway inside the plastid.
To separate these possibilities, we exploited the fact that exogenous malonate can be converted to malonyl-CoA and used by FAS, bypassing the ACCase reaction (Kannangara et al. 1973, Plant Physiol, 52, 156-161). If ACCase is the only point of inhibition then the rate of ^14C-malonate labeling of de novo fatty acids should be the same in cultures with or without Tween-80. […] Therefore ACCase, and not F AS, is inhibited by Tween-80 feeding. When combined, the data from FIG. 6 unambiguously identify plastidic ACCase as the target of Tween-80 induced feedback inhibition.

The target in assay [5] is Brassica napus plastidic (heteromeric) acetyl-CoA carboxylase, endogenous enzyme in crude cell extracts (Brassica napus). The assay can be described thus: cell-based or functional assay.

1-^13C-oleoyl-Tween: the “13C-18:1 as proportion of the total 18:1” value in assay [1] (after three hours) is on record as “about 10%”. The “proportion of 13C-label in 18-carbon fatty acids” value in assay [1] (by 48 hours) is “about 70%”. In assay [2], the “percent of 18:1-ACP containing 13C-oleic acid” value was 46.2±4.2% and the “percent of 18:1 FFA containing 13C-oleic acid” value was 99.1±2.2%.

With `O=C(O)CCC(=O)C(=O)O` [2-oxoglutarate], the “ACCase activity, difference between control and Tween-80 fed cultures” value in assay [3] (in the presence of 5 mM 2-oxoglutarate) is on record as “no differences”. In the case of `CCCCCCCC/C=C\CCCCCCCC(=O)SCCNC(=O)CCNC(=O)[C@H](O)C(C)(C)COP(=O)(O)OP(=O)(O)OC[C@H]1O[C@@H](n2cnc3c(N)ncnc32)[C@H](O)[C@@H]1OP(=O)(O)O` [18:1-CoA, 18:1-Coenzyme A], the “extent of ACCase inhibition” value in assay [3] (crude extract, physiological range of concentrations) is reported as “partial”.

In the case of `CC(Oc1ccc(Oc2ncc(C(F)(F)F)cc2Cl)cc1)C(=O)O` (centres unmarked) [haloxyfop], the “reduction in ACCase activity” value in assay [3] (crude extracts treated with haloxyfop) was “about 15%”.

Turning to `O=C(O)CC(=O)O` [malonate], the “inhibition of 14C-acetate incorporation on malonate feeding” value in assay [4] (malonate feeding) is reported as “does not cause inhibition”.

For “B. napus 18:1-ACP (18:1-Acyl Carrier Protein made from BnACP, GenBank:X13127.1, with 6x his-tag)”, the ACCase activity in crude B. napus cell extracts (acetyl-CoA dependent incorporation of 14C-NaHCO3, 10 min assay) in assay [5] is > 3 µM. For the compound Tween-18:1, the “inhibition of acetate labeling of lipids” value in assay [4] (in words) is given as “maximum inhibition”. In assay [4], the “Relative 14C-acetate incorporation (% control)” value came to 51.5 ± 6.7 % control. Regarding Tween-40, the “Relative 14C-acetate incorporation (% control)” value in assay [4] is 84.4 ± 3.4 % control.

Take Tween-60: the “Relative 14C-acetate incorporation (% control)” value in assay [4] is on record as 85.9 ± 3.4 % control. The same measure, in the same setting: the value for Tween-85 was 48.8 ± 5.9 % control.
